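Dose response: 5 concentrations. Exposure: 48 h. Format: 96-well plates. Endpoint: linear interpolation; highest concentration if not reached. Here, GI50 denotes the concentration required for 50% inhibition of growth. TGI marks complete inhibition of growth.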
Assays:
Test in all cases: inhibition of tumour cell growth, NCI panel, 48 h
SN12C renal = tested on: SN12C renal
SK-MEL-2 melanoma = tested on: SK-MEL-2 melanoma
OVCAR-8 ovarian = tested on: OVCAR-8 ovarian
OVCAR-3 ovarian = tested on: OVCAR-3 ovarian
LOX IMVI melanoma = tested on: LOX IMVI melanoma
T-47D breast = tested on: T-47D breast
OVCAR-5 ovarian = tested on: OVCAR-5 ovarian
SR leukemia = tested on: SR leukemia
CCRF-CEM leukemia = tested on: CCRF-CEM leukemia
RPMI-8226 leukemia = tested on: RPMI-8226 leukemia

Structure (SMILES)	TGI (SN12C renal) [µM]	TGI (SK-MEL-2 melanoma) [µM]	TGI (OVCAR-8 ovarian) [µM]	TGI (OVCAR-3 ovarian) [µM]	TGI (LOX IMVI melanoma) [µM]	TGI (T-47D breast) [µM]	TGI (OVCAR-5 ovarian) [µM]	TGI (SR leukemia) [µM]	TGI (CCRF-CEM leukemia) [µM]	TGI (RPMI-8226 leukemia) [µM]	GI50 (SN12C renal) [µM]	GI50 (SK-MEL-2 melanoma) [µM]	GI50 (OVCAR-8 ovarian) [µM]	GI50 (OVCAR-3 ovarian) [µM]	GI50 (LOX IMVI melanoma) [µM]	GI50 (T-47D breast) [µM]	GI50 (OVCAR-5 ovarian) [µM]	GI50 (SR leukemia) [µM]	GI50 (CCRF-CEM leukemia) [µM]	GI50 (RPMI-8226 leukemia) [µM]
C[C@H]1[C@H](C)CC[C@]2(C(=O)OC3OC(CO)C(O)C(O)C3O)CC[C@]3(C)C(=CC[C@@H]4[C@@]5(C)C[C@@H](O)[C@@H]6OC(=O)c7cc(O)c(O)c(O)c7-c7c(cc(O)c(O)c7O)C(=O)OC[C@@]6(CO)[C@@H]5CC[C@]43C)[C@H]12 (stereo not given in full)	> 100	> 100	> 100	> 91.4	35.9	> 100	> 100	> 100	98.7	> 100	–	–	–	–	–	–	–	–	–	–
CCN(CC)CCCCNc1c2ccc(Cl)cc2nc2ccc(OC)cc12	2.61	3.31	3.35	2.99	0.583	4.54	3.33	1.53	5.3	4.2	0.438	1.15	0.406	0.501	0.213	1.22	0.465	0.207	0.524	0.566
NC(=O)c1ccc[n+](C2=C([O-])c3ccccc3C(=O)/C2=N\S(=O)(=O)c2ccccc2)c1	30.9	25.7	28.4	17	29.5	53.6	33.3	> 100	> 100	> 100	–	–	–	–	–	–	–	–	–	–
NC(=O)NN=C1Cc2ccccc2C1	> 100	> 100	> 100	> 100	> 100	> 100	> 100	> 100	> 100	> 100	–	–	–	–	–	–	–	–	–	–
NC(=O)C1CCN(Cc2c(Cl)c(Cl)c(CN3CCC(C(N)=O)CC3)c(Cl)c2Cl)CC1	> 100	> 100	> 100	> 100	> 100	> 100	> 100	> 100	> 100	> 100	–	–	–	–	–	–	–	–	–	–
Cc1cccc2c1CC(Cc1ccccc1C(=O)O)C2=O (stereo not given)	> 100	> 100	> 100	> 100	> 100	> 100	> 100	> 100	> 100	> 100	–	–	–	–	–	–	–	–	–	–
O=c1c2ccc(Cl)cc2oc2c(CNc3ccc(S(=O)(=O)Nc4ncccn4)cc3)cccc12	> 100	> 100	> 100	> 100	> 100	> 100	> 100	> 100	> 100	> 100	–	–	–	–	–	–	–	–	–	–
CCOC(=O)N1CCN(c2c(N)nc(C)[nH]c2=O)CC1	> 100	> 100	> 100	> 100	> 100	> 100	> 100	> 100	> 100	> 100	–	–	–	–	–	–	–	–	–	–
CC(C)=CCC[C@@H](C)C1=C(Nc2ccccc2F)C(O)=C(C)C(=O)C1=O	> 100	42.1	> 30.2	> 100	> 100	64.1	> 100	> 100	3.9	> 100	–	–	–	–	–	–	–	–	–	–
CC(=O)/C(=N\Nc1ccc(Cl)cc1)C(C)=Nc1ccc(C)cc1	> 100	40	> 100	84.5	> 100	> 100	> 100	> 100	37.7	> 100	–	–	–	–	–	–	–	–	–	–
CCCCNC(=O)Cn1c2ccc(Br)cc2c2nc3ccccc3nc21	> 100	> 100	> 100	> 100	> 100	> 100	> 100	> 100	> 100	> 100	–	–	–	–	–	–	–	–	–	–
O=C(NC(C(F)(F)F)(C(F)(F)F)P(=O)(Cc1ccccc1)Cc1ccccc1)C(C(F)(F)F)C(F)(F)F	38.4	59.1	46.5	> 100	35.2	95.1	41.8	80.6	> 100	72	–	–	–	–	–	–	–	–	–	–
CCOC(=O)/C=C/CCC(C)(C)COC(C)=O	> 10	> 10	> 10	> 10	> 10	> 10	> 10	> 10	> 10	> 10	–	–	–	–	–	–	–	–	–	–
NCCCCNCCCN1CCOC1=O	> 100	> 100	> 100	> 100	> 100	> 100	> 100	> 100	> 100	> 100	–	–	–	–	–	–	–	–	–	–
Cc1cc(-c2cc(C(C)(C)C)c(O)c(C(C)(C)C)c2)c(C)cc1-c1cc(C(C)(C)C)c(O)c(C(C)(C)C)c1	> 100	> 100	> 100	> 100	> 100	> 100	> 100	> 100	> 100	> 100	–	–	–	–	–	–	–	–	–	–
COc1cc2c(cc1OCc1ccccc1)NC(=O)[C@@H]1CCCN1C2=O	> 100	> 100	> 100	> 100	> 100	> 100	> 100	> 100	> 100	> 100	–	–	–	–	–	–	–	–	–	–
CCC1([N+](=O)[O-])CN(N=O)C1	> 100	> 100	> 100	> 100	> 100	> 100	> 100	> 100	> 100	> 100	–	–	–	–	–	–	–	–	–	–
